From the supplement of paper PMC13380429
Counter-ions that a name gives are not always drawn.

Columns and labels:
Details in all cases: 72 h
Caco-2 [1] = assay: cell viability relative to DMSO; higher = less toxic
Calu-3 [2] = assay: as above
U2OS [3] = assay: as above
Vero E6 [4] = assay: as above
Caco-2 [5] = assay: relative viability EC50 (midpoint between 100% and the lowest measured viability); higher = less toxic
Calu-3 [6] = assay: as above
U2OS [7] = assay: as above
Vero E6 [8] = assay: as above
Caco-2 [9] = assay: drug sensitivity score (DSS) for viability; higher = more toxic; extreme values may be limits of the assay
Calu-3 [10] = assay: as above
U2OS [11] = assay: as above
Vero E6 [12] = assay: as above
HepG2 [13] = assay: cell viability relative to DMSO; higher = less toxic
HepG2 [14] = assay: relative viability EC50 (midpoint between 100% and the lowest measured viability); higher = less toxic
HepG2 [15] = assay: drug sensitivity score (DSS) for viability; higher = more toxic; extreme values may be limits of the assay

| SMILES | cell viability (Caco-2 [1]; 1 nM) [%] | cell viability (Caco-2 [1]; 10 nM) [%] | cell viability (Caco-2 [1]; 100 nM) [%] | cell viability (Caco-2 [1]; 1000 nM) [%] | cell viability (Caco-2 [1]; 10000 nM) [%] | cell viability (Calu-3 [2]; 1 nM) [%] | cell viability (Calu-3 [2]; 10 nM) [%] | cell viability (Calu-3 [2]; 100 nM) [%] | cell viability (Calu-3 [2]; 1000 nM) [%] | cell viability (Calu-3 [2]; 10000 nM) [%] | cell viability (U2OS [3]; 1 nM) [%] | cell viability (U2OS [3]; 10 nM) [%] | cell viability (U2OS [3]; 100 nM) [%] | cell viability (U2OS [3]; 1000 nM) [%] | cell viability (U2OS [3]; 10000 nM) [%] | cell viability (Vero E6 [4]; 1 nM) [%] | cell viability (Vero E6 [4]; 10 nM) [%] | cell viability (Vero E6 [4]; 100 nM) [%] | cell viability (Vero E6 [4]; 1000 nM) [%] | cell viability (Vero E6 [4]; 10000 nM) [%] | relative viability EC50 (Caco-2 [5]) [µM] | relative viability EC50 (Calu-3 [6]) [µM] | relative viability EC50 (U2OS [7]) [µM] | relative viability EC50 (Vero E6 [8]) [µM] | drug sensitivity score (Caco-2 [9]) | drug sensitivity score (Calu-3 [10]) | drug sensitivity score (U2OS [11]) | drug sensitivity score (Vero E6 [12]) | cell viability (HepG2 [13]; 1 nM) [%] | cell viability (HepG2 [13]; 10 nM) [%] | cell viability (HepG2 [13]; 100 nM) [%] | cell viability (HepG2 [13]; 1000 nM) [%] | cell viability (HepG2 [13]; 10000 nM) [%] | relative viability EC50 (HepG2 [14]) [µM] | drug sensitivity score (HepG2 [15]) |
| --- | --- | --- | --- | --- | --- | --- | --- | --- | --- | --- | --- | --- | --- | --- | --- | --- | --- | --- | --- | --- | --- | --- | --- | --- | --- | --- | --- | --- | --- | --- | --- | --- | --- | --- | --- |
| Cn1cc(/C=C2\C(=O)Nc3cccnc32)c2ccccc21 | 97.9 | 94.4 | 95.2 | 94 | 91.7 | 88.6 | 114 | 102 | 109 | 122 | 93.9 | 98.4 | 95.3 | 101 | 99.5 | 96 | 97.1 | 92.7 | 87 | 106 | > 10 | > 10 | > 10 | > 10 | 0 | 0 | 0 | 0 |  |  |  |  |  |  |  |
| CN[C@H]1CC[C@@H](c2ccc(Cl)c(Cl)c2)c2ccccc21 [SERTRALINE HYDROCHLORIDE] | 99.2 | 103 | 95.9 | 102 | 84.4 | 102 | 105 | 104 | 103 | 58.3 | 103 | 99.1 | 93 | 100 | 81.5 | 98.5 | 97.4 | 102 | 93.6 | 77.8 | > 10 |  | > 10 | > 10 | 0.2 | 1.9 | 0.5 | 1.6 | 102 | 108 | 98.1 | 112 | 79.2 | > 10 | 0.4 |
| Cc1cccc(C(=O)NCN2CCN(c3ccccc3C#N)CC2)c1 | 95.3 | 103 | 89.1 | 104 | 104 |  |  |  |  |  | 98.1 | 103 | 97.2 | 101 | 101 |  |  |  |  |  | > 10 |  | > 10 |  | 0 |  | 0 |  | 105 | 96.6 | 96.9 | 101 | 94.5 | > 10 | 0 |
| CCCCCCOC(=O)NC(=N)c1ccc(NCc2nc3cc(C(=O)N(CCC(=O)OCC)c4ccccn4)ccc3n2C)cc1 [dabigatran-etexilate] | 96.5 | 88.5 | 104 | 93.8 | 78.1 | 101 | 82.3 | 109 | 103 | 84.3 | 97.7 | 92.9 | 101 | 95.9 | 96.9 | 97.8 | 103 | 99.4 | 102 | 108 | > 10 | > 10 | > 10 | > 10 | 1.5 | 0.1 | 0 | 0 | 91.6 | 106 | 88.9 | 116 | 72.7 |  | 0.7 |
| COC(=O)Nc1ccc(-c2nc(N3CCOCC3)c3cnn(C4CCN(C(=O)OC)CC4)c3n2)cc1 [WYE-354] | 98.3 | 99.3 | 97.3 | 83.1 | 48.3 | 93.6 | 91.4 | 95.8 | 92.2 | 52.2 | 99.3 | 98.3 | 104 | 98.6 | 84.8 | 97.4 | 99.7 | 91.8 | 96.4 | 64.8 | 1.38 |  | > 10 |  | 5 | 3.8 | 0.4 | 2.2 | 104 | 107 | 94.8 | 102 | 44.8 | 3.34 | 2.8 |
| C/C1=C/C[C@@H](/C(C)=C/c2csc(C)n2)OC(=O)C[C@H](O)C(C)(C)C(=O)[C@H](C)[C@@H](O)[C@@H](C)CCC1 [epothilone-D] | 101 | 83.1 | 53.9 | 46.3 | 56.9 | 110 | 84 | 61.9 | 55.2 | 54.1 | 97.6 | 53.1 | 29.5 | 23.2 | 41.5 | 99.8 | 83.9 | 45.1 | 25.3 | 46.8 | 0.0202 |  | 0.0075 | 0.0363 | 17.4 | 14.8 | 29.4 | 21.5 | 91.8 | 50.6 | 22.2 | 15.8 | 22.2 | 0.0074 | 31.7 |
| O=C(O)c1ccccc1S [o-mercapto-benzoic-acid] | 98 | 87.2 | 86.4 | 102 | 99.4 |  |  |  |  |  | 97.9 | 94.1 | 95.9 | 94.8 | 109 | 92.2 | 97.9 | 96.2 | 105 | 106 | > 10 |  | > 10 | > 10 | 0 |  | 0 | 0 | 99.7 | 91.5 | 89.9 | 101 | 112 | > 10 | 0 |
| CC[C@@]1(O)C(=O)OCc2c1cc1n(c2=O)Cc2c-1nc1cc(F)c(C)c3c1c2[C@@H](N)CC3 [exatecan-mesylate] | 90.7 | 72.7 | 32.7 | 21 | 20.7 |  |  |  |  |  | 102 | 92 | 56.9 | 17 | 4.1 | 110 | 91.8 | 60.6 | 15.9 | 0.4 | 0.0178 |  | 0.127 | 0.158 | 25.8 |  | 20.9 | 20.5 | 65.8 | 40.5 | 20.8 | 2.3 | 3.9 | 0.0038 | 36.4 |
| CCOCOC[C@H](C[C@H](C)C(=O)NO)NC(=O)c1ccc(Oc2ccccc2)cc1 [ONO-4817] | 104 | 104 | 100 | 103 | 87.6 | 92.3 | 85.3 | 97.6 | 95.4 | 89.2 | 98.1 | 103 | 97.1 | 104 | 92.6 | 103 | 102 | 103 | 101 | 91.5 | > 10 | > 10 | > 10 | > 10 | 0 | 0 | 0 | 0 |  |  |  |  |  |  |  |
| COC(F)(F)C(Cl)Cl [methoxyflurane] | 96.2 | 98.1 | 96.9 | 99.8 | 94.4 |  |  |  |  |  | 99.8 | 97.3 | 98.5 | 95.3 | 100 | 104 | 102 | 103 | 96.7 | 96.3 | > 10 |  | > 10 | > 10 | 0 |  | 0 | 0 | 103 | 96.3 | 100 | 94 | 109 | > 10 | 0 |
| OC[C@H]1O[C@@H](n2cnc3c(N[C@H]4CCC[C@@H]4O)ncnc32)[C@H](O)[C@@H]1O | 103 | 99.3 | 104 | 101 | 107 |  |  |  |  |  | 99.4 | 100 | 98.6 | 97.1 | 102 | 103 | 102 | 98.9 | 99 | 97.3 | > 10 |  | > 10 | > 10 | 0 |  | 0 | 0 | 86.2 | 84 | 95 | 102 | 94 | > 10 | 0 |
| Cc1oc2ccccc2c1CNC(=O)NCc1cccs1 | 103 | 106 | 98.4 | 96.9 | 96.6 | 92.4 | 93.4 | 96.2 | 89.9 | 99.3 |  |  |  |  |  | 103 | 107 | 102 | 96.9 | 97.9 | > 10 | > 10 |  | > 10 | 0 | 0 |  | 0 |  |  |  |  |  |  |  |
| CC(C)C[C@H](CN)CC(=O)O [PREGABALIN] | 128 | 122 | 95 | 104 | 82.6 |  |  |  |  |  | 94.5 | 102 | 98.9 | 98.2 | 98.2 | 93.5 | 105 | 106 | 103 | 100 | > 10 |  | > 10 | > 10 | 0.3 |  | 0 | 0 | 105 | 87.3 | 106 | 103 | 98.9 | > 10 | 0 |
| CCN(CCO)CCCOc1ccc2c(Nc3cc(CC(=O)Nc4cccc(F)c4)[nH]n3)ncnc2c1 [barasertib-HQPA] | 93 | 100 | 78.4 | 91.6 | 88.4 | 95.1 | 93 | 97.2 | 92.6 | 94.2 | 94.4 | 95.8 | 93.7 | 91.7 | 87 | 93.8 | 96 | 98.2 | 91 | 88.2 | > 10 | > 10 | > 10 | > 10 | 0.6 | 0 | 0 | 0 | 99.5 | 99.7 | 77.8 | 72.8 | 78.8 |  | 6.9 |
| O=c1[nH]c(=O)n([C@H]2C[C@H](O)[C@@H](CO)O2)cc1Br [broxuridine] | 96 | 85.3 | 91.6 | 94.4 | 106 | 94.2 | 86.5 | 102 | 95.9 | 101 | 100 | 98 | 100 | 96.4 | 97.5 | 110 | 107 | 99 | 97.8 | 79 | > 10 | > 10 | > 10 | > 10 | 0 | 0 | 0 | 1 | 97 | 97.1 | 98.1 | 95.3 | 66.7 |  | 2.3 |
| O=S(=O)(NCCNC/C=C/c1ccc(Br)cc1)c1cccc2cnccc12 [H-89] | 99.9 | 103 | 98.7 | 99.9 | 89.6 | 79.7 | 100 | 87.6 | 103 | 118 | 101 | 96 | 102 | 97.2 | 90.7 | 96.8 | 97.6 | 100 | 97 | 82.9 | > 10 | > 10 | > 10 | > 10 | 0 | 0 | 0 | 0.7 | 95.5 | 96.4 | 91.9 | 102 | 74.7 |  | 0.8 |
